Tests used:
phosphorylated PRAS40 [1] = assay: Immunoblot of phosphorylated PRAS40 in MDA-MB-468 cells; format: cell-based, human; details: 24-hour treatment
Protocol: (§1) MDA-MB-468 (human breast cancer cell line) cells were maintained in RPMI 1640 (Wisent Bioproducts) supplemented with 10% FBS (Thermo Fisher Scientific) and MCF10A (human breast epithelial cell line) cells were maintained in Dulbecco's modified Eagle's medium (DMEM)/Ham's F12 (Wisent Bioproducts) supplemented with 5% equine serum (Fisher), insulin (10 μg/ml) (Life Technologies), hydrocortisone (500 ng/ml) (Sigma-Aldrich®), epidermal growth factor (20 ng/ml) (R&D Systems), and cholera toxin (100 ng/ml) (List Biological Lab). MDA-MB-468 and MCF10A cells were seeded at 250,000 cells/mL and 200,000 cells/mL, respectively. The following day cells were treated with inventive bifunctional compounds. After 24 hours, cells were washed with phosphate-buffered saline at 4° C. and lysed in radioimmunoprecipitation assay (RIPA) buffer (150 mM Tris-HCl, 150 mM NaCl, 0.5% (w/v) sodium deoxycholate, 1% (v/v) NP-40, pH 7.5) containing 0.1% (w/v) sodium dodecyl sulfate, 1 mM sodium pyrophosphate, 20 mM sodium fluoride, 50 nM calyculin, and 0.5% (v/v) protease inhibitor cocktail (Sigma-Aldrich®)). Cell extracts were precleared by centrifugation at 14,000 rpm for 10 minutes at 4° C. The Bio-Rad DC protein assay was used to assess protein concentration, and sample concentration was normalized using SDS sample buffer. […] Images were stored and analyzed using ImageStudioTM (LI-COR®) software.

phosphorylated PRAS40 [2] = assay: Immunoblot of phosphorylated PRAS40 in MCF10A cells; format: cell-based, human; details: 24-hour treatment
Protocol: as §1, with “software. […]” for “software.”

[3] = tested on: phospho-PRAS40 (T246), phospho-GSK3I3 (S9), phospho-S6 (S240/244); assay: Immunoblot of downstream signaling (pPRAS40, pGSK3, pS6) in T47D and MDA-MB-468 cells; format: cell-based, human
Protocol: Solid vertical white line indicates samples run on separate gels. […] Solid vertical white line indicates samples run on separate gels. Cells were plated at 250,000 cells per mL (MDA-MB-468, MOLT4, IGROV1, PC3, and Jurkat) or 200,000 cells per mL (T47D) in 2 mL per well of RPMI or DMEM media with 10% serum in 6-well treated tissue culture plates (Greiner, Cat #TCG-657160) or 60 mm treated tissue culture plates (Corning®, Cat #430166) and incubated overnight. The next day, cells were treated with the indicated compounds at the appropriate concentration and protein lysates were harvested at the times specified. Cells were washed once in 1×PBS then lysed in RIPA buffer (150 mM Tris-HCl, 150 mM NaCl, 0.5% (w/v) sodium deoxycholate, 1% (v/v) NP-40, pH 7.5) containing 0.1% (w/v) sodium dodecyl sulfate, 1 mM sodium pyrophosphate, 20 mM sodium fluoride, 50 nM calyculin, and 0.5% (v/v) protease inhibitor cocktail (Sigma-Aldrich®) for 15 minutes. Cell extracts were precleared by centrifugation at 14,000 rpm for 10 minutes at 4° C. The Bio-Rad DC protein assay was used to assess protein concentration, and sample concentration was normalized using SDS sample buffer. Lysates were resolved on acrylamide gels by SDS-polyacrylamide gel electrophoresis and electrophoretically transferred to nitrocellulose membrane (BioRad) at 100 volts for 90 minutes. Membranes were blocked in 5% (w/v) nonfat dry milk in tris-buffered saline (TBS) buffer for 1 hour then incubated with specific primary antibodies diluted in 5% (w/v) nonfat dry milk in TBS-T (TBS with 0.05% Tween®-20) at 4° C. overnight, shaking. The next day, membranes were washed with TBS-T then incubated for 1 hour at room temperature with fluorophore-conjugated secondary antibodies (LI-COR® Biosciences). The membrane was washed again with TBS-T then imaged with a LI-COR® Odyssey® CLx Imaging System (LI-COR® Biosciences).

ZR-75-1 cells = assay: Growth inhibition rate (GR) assay in ZR-75-1 cells; format: cell-based; details: 72-hour treatment (FIG. 6A)
Text: (§2) FIG. 6A-FIG. 6F are a set of graphs that show growth inhibition rate (GR) values across concentrations in ZR-75-1 (FIG. 6A), T47D (FIG. 6B), LNCaP (FIG. 6C), MCF-7 (FIG. 6D), MDA-MB-468 (FIG. 6E), and HCC1937 (FIG. 6F) cells after 72-hour treatment with GDC-0068 (blue), inventive bifunctional compound 10 (red), bifunctional compound 10-Me (negative control) (green), and lenalidomide (orange). Error bars represent the standard deviation of three technical replicates.

[4] = tested on: ZR-75-1, T47D, LNCaP, MCF-7 cells; assay: Growth inhibition rate (GR) assay in cell lines sensitive to AKT inhibition; format: cell-based; details: MCF-7, 72-hour treatment (FIG. 6A-6D)
Text: as §2

[5] = T47D and MDA-MB-468 cells, 250 nM (FIG. 7C-7D)

Compound | Phosphorylated PRAS40 signal (phosphorylated PRAS40 [1]) | Phosphorylated PRAS40 signal (phosphorylated PRAS40 [2]) | Duration of reduction of pPRAS40 levels [3, 5] | Inhibition of pPRAS40 compared with compound 10 [3, 5] | Phosphorylation of PRAS40, GSK3I3 and S6 ([3]; T47D and MDA-MB-468 cells, 250 nM, 24 hours (FIG. 7A-7B)) | pPRAS40 levels after compound washout ([3]; T47D or MDA-MB-468 cells, 12 h treatment at 250 nM, then washout (FIG. 7E-7F)) | GR50 (ZR-75-1 cells) | Anti-proliferative effects [4]
CC(C)NC[C@@H](C(=O)N1CCN(c2ncnc3c2[C@H](C)C[C@H]3O)CC1)c1ccc(Cl)cc1 [GDC-0068] | reduction of phosphorylated proline-rich AKT substrate of 40 kDa (PRAS40) signal | reduction of phosphorylated PRAS40 signal | shorter | less-pronounced inhibition of pPRAS40 | weaker responses | rebound of pPRAS40 | comparable GR50 value | –
Nc1cccc2c1CN(C1CCC(=O)NC1=O)C2=O (centres unmarked) [lenalidomide] | – | – | – | – | – | – | – | did not have strong anti-proliferative effects

From patent US12642857B2, “Degradation of AKT by conjugation of ATP-competitive AKT inhibitor GDC-0068 with E3 ligase ligands and methods of use” (DANA-FARBER CANCER INSTITUTE, INC., priority 2019, dated 2026)
